This is an account of results in ChEMBL document CHEMBL1127225, “Gem-cycloalkyl substituted thiol inhibitors of neutral endopeptidase 24.11. Synthesis via nucleophilic opening of 2,2-spiro--lactones” (Bioorg Med Chem Lett, 1993).

A word on the IC50: it is the point on the concentration scale where inhibition reaches its midpoint. Low values mean greater potency in that assay, high ones weaker potency in that assay.

This experiment has as its target T1, Neprilysin (Rattus norvegicus, UniProt P07861).
T1 sequence (P07861 whole entry): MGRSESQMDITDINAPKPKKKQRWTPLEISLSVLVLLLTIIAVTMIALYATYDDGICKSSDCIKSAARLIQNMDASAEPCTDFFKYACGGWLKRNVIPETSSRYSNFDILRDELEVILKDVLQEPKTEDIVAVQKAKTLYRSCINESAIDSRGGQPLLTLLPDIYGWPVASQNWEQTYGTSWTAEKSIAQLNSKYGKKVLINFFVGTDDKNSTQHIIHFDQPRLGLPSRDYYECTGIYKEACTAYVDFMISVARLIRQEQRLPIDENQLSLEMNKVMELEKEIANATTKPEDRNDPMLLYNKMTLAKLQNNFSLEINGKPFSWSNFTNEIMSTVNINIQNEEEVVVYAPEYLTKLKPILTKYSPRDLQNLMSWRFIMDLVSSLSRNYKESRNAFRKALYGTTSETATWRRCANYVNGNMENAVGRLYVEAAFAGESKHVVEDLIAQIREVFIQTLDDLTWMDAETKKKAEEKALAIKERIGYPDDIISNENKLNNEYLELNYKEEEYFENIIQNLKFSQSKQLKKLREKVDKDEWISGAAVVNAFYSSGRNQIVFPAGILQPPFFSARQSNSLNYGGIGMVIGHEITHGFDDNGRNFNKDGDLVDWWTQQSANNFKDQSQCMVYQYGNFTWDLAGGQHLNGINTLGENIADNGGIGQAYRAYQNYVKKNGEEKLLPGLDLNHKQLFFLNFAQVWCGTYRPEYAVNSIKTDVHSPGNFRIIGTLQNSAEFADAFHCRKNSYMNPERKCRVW
Put plainly: The compound was tested for its inhibitory activity against neutral endopeptidase ([…]) in rat kidney.
In the case of `O=C(O)[C@H]1CCC[C@@H](NC(=O)C2(CS)CCCC2)C1`, half-maximal inhibition (IC50) required 215 nM.

Turning to `O=C(O)[C@H]1CCC[C@@H](NC(=O)C2(CS)CCCCC2)C1`, it took 310 nM to reach half-maximal inhibition (IC50).

As for `O=C(N[C@@H]1CCC[C@H](C(=O)O)C1)C(CS)Cc1ccccc1` (stereo not given in full), half-maximal inhibition (IC50) was put at 180 nM.

As to `O=C(O)[C@H](Cc1ccccc1)NC(=O)C1(CS)CCCC1`, 220 nM corresponded to half-maximal inhibition (IC50).

`COCCOC[C@H](CC1(C(=O)N[C@H]2CC[C@@H](C(=O)O)CC2)CCCC1)C(=O)O` [CANDOXATRILAT] came in with an IC50 of 38 nM.
